This note sets out measurements from US11680268B2, “Methods for improving CRISPR/Cas-mediated genome-editing” (Editas Medicine, Inc., priority 2014, dated 2023).

The subject of assay [1] is HBB locus. In words: Cas9 genome editing at the HBB locus, quantification of repair outcomes (reads). In kind it is cell-based.
Excerpt: The data is a representation of at least four independent experiments with a minimum of 350 reads per condition.
FIG. 12B is a graph depicting the percentage of modification observed in U2OS cells edited at the HBB locus with D10A Cas9 and 2 gRNAs with or without BRCA2 or Rad51. FF is a negative control.
Assay [2] has as its system HBB locus. In words: Repair outcomes at the HBB locus after Cas9 variant cleavage, Sanger sequencing of Topo clones. In kind it is cell-based, human. The following applies: U2OS cells.
Excerpt: The different repair outcomes induced in response to DSBs introduced by different Cas9 variants were examined (FIG. 3). […] Several different DNA repair outcomes including, e.g., indel mutations resulting from non-homologous end-joining, alternative NHEJ, HDR homologous recombination (HR) using the closely related HBD gene as an endogenous template, or homology dependent repair using an exogenous donor sequence were characterized.
For some conditions, 50 pmols of single stranded oligonucleotide donor (ss-ODN) was included. Cells were collected 6 days after electroporation and genomic DNA was extracted. PCR amplification of the HBB locus was performed and subcloned into a Topo Blunt Vector. For each condition in each experiment (more the 4 independent samples) 98 colonies were analyses were sequenced with Sanger sequencing and scored for either insertions, deletions, gene conversion or gene corrections.
Assay [3] concerns HBB locus. Put plainly: Deletion length at the HBB locus after Cas9 variant cleavage. In kind it is cell-based, human. The following applies: U2OS cells, gRNAs 8 and 15, 6 days after electroporation.
Description: In this experiment, the deletions occurring in response to different end structures induced by different Cas9 variants were analyzed. […] Cells were collected 6 days after electroporation and genomic DNA was extracted. PCR amplification of the HBB locus was performed and subcloned into a Topo Blunt Vector. For each condition in each experiment (more the 4 independent samples), 98 colonies were analyses were sequenced with Sanger sequencing. Deletions detected by Sanger sequencing were scored for the exact number of nucleotides deleted.

“D10A Cas9 mutant: Cas9 nickase with D10A mutation; D10A inactivates RuvC, only HNH activity; leaves 5′ protruding ends”: the “repair pathway of the double strand breaks generated” value with HBB locus [1] was “predominantly repaired by HR”. For the same substance, the “engagement of the 5′ protruding end in HDR” value in the assay on HBB locus [1] (PAM facing in the opposite orientation, presence of a single-stranded oligonucleotide donor template nucleic acid) is reported as “more prone to be engaged in HDR”.
With “D10A: Cas9 nickase mutant (RuvC domain catalytic mutant); two gRNAs with PAMs outwards give 5′ protruding arms”, the “efficacy compared to wildtype Cas9” value in the assay with HBB locus [2] (gRNAs HBB-8 and HBB-15) was “comparable levels of efficacy compared to wildtype Cas9”. The “predominant repair outcome of the induced DSBs” value with HBB locus [2] (gRNAs HBB-8 and HBB-15, no exogenous ss-ODN, 6 days after electroporation) is “predominantly repaired by the gene conversion pathway”. Further, in the assay with HBB locus [2] (gRNAs HBB-8 and HBB-15, with 50 pmols ss-ODN), the “repair using the ss-ODN as a template” value is “most efficient repair”. The size of deletions entry in the assay with HBB locus [3] is recorded as “mostly larger in nature”.
